In assay [1] the test system is Aspergillus niger. The experiment in a line: Fungicidal activity against Aspergillus niger after 7 days by serial dilution technique. In kind it is functional, organism-based.
The subject of assay [2] is Candida albicans. The experiment in a line: Fungicidal activity against Candida albicans. In kind it is functional, organism-based.
The subject of assay [3] is Candida albicans. The assay is described as follows: Antifungal activity against Candida albicans after 2 days by serial dilution technique. It counts as functional.
Assay [4] relates to Bacillus subtilis. The assay is described as follows: Bactericidal activity against Bacillus subtilis. It counts as functional, organism-based.
For assay [5], the system named is Aspergillus niger. The assay is described as follows: Antifungal activity against Aspergillus niger after 7 days by serial dilution technique. In kind it is functional.
The subject of assay [6] is Escherichia coli. The assay is described as follows: Antibacterial activity against Escherichia coli after 24 hr by serial dilution technique. It counts as functional.
Assay [7] concerns Staphylococcus aureus. The experiment in a line: Bactericidal activity against Staphylococcus aureus. It counts as functional, organism-based.
Assay [8] deals with Bacillus subtilis. The experiment in a line: Antibacterial activity against Bacillus subtilis after 24 hr by serial dilution technique. It counts as functional.
Assay [9] has as its system Escherichia coli. The experiment in a line: Bactericidal activity against Escherichia coli. In kind it is functional, organism-based.
Assay [10] relates to Staphylococcus aureus. The experiment in a line: Antibacterial activity against Staphylococcus aureus after 24 hr by serial dilution technique. In kind it is functional.

Active and inactive are the calls of the source. No cut-off for these calls is given here.

For `Cc1ccc(NC(=O)c2ccccc2N)c(C)c1`, the result with Aspergillus niger [1], with Candida albicans [2], in the assay on Bacillus subtilis [4], in the assay on Staphylococcus aureus [7] and in the assay with Escherichia coli [9] was Active. The “-logMIC” value with Candida albicans [3] is given as 1.28; with Aspergillus niger [5], 1.28; with Escherichia coli [6] it was 1.28; with Bacillus subtilis [8], 2.19; in the assay with Staphylococcus aureus [10], 1.28.

The record behind these values is ChEMBL document CHEMBL3046853, “Synthesis, antimicrobial evaluation, ot-QSAR and mt-QSAR studies of 2-amino benzoic acid derivatives” (2012).
